Data as given in patent publication US20050112573A1, “Method of detecting toxic substance” (priority 2001, published 2005).

Tested on: yeast genes (level of expressed mRNA)
Experiment: DNA chip analysis of expressed mRNA of yeast genes after 2 h culture with a toxic chemical substance
Type: cell-based, Saccharomyces cerevisiae S288C
Description: Yeast (Saccharomyces cerevtisiae S288C (α SUC2mal mel gap2 CUP1)) were cultured at 25° C. on YPD medium (yeast extract 1%, polypepton 2%, glucose 2%). One of toxic chemical substances was added to the cell at logarithmic growth phase, and the cell was further cultured for two hours. Cell was cultured without any chemical substance in the same condition, and was used as control. Concentrations of the chemical substances were defined to inhibit the growth of the yeast but not lead to death.
After the completion of cultivation, the culture was centrifuged to collect the cells. To the cells, sodium acetate buffer (50 mM sodium acetate, 10 mM EDTA, 1% SDS) was added, and the mixture was shaken at 65° C. for five minutes, followed by returning to room temperature, and obtaining the supernatant, which procedure was repeated two times. To the supernatant, ½ amount of a solution of phenol/chloroform was added, and the mixture was centrifuged to give a supernatant, which was added with an equal amount of chloroform, and the mixture was centrifuged to give a supernatant. To the supernatant, an equal amount of isopropanol containing 0.3 M sodium acetate was added, and the mixture was allowed to stand at room temperature for 30 minutes, after which the mixture was centrifuged to give a sediment of the whole RNAs. Seventy % ethanol was added to the sediment, and the mixture was again centrifuged to give a sediment, which was then dried and dissolved in water. mRNA was isolated from the whole RNAs as followings. In view of the fact that a poly A chain is attached to the 3′ terminus of mRNA, a polynucleotide having a poly T structure which was immobilized on the surface of latex beads was used to trap the mRNA, and then the mRNA was washed and eluted with spine column (Oligotex-dT30<Super>mRNA Purification Kit, Takara). Reverse transcription of the mRNA was conducted with a reverse transcriptase (Super Script II Reverse Transcriptase; catalogue No. 18064-014, GibcoBRL) using fluorescence-labeled nucleotides to give cDNAs that were introduced with Cy3-dUTP or Cy5-dUTP during the reverse transcription.
The labeled cDNAs were dissolved in TE buffer (10 mM Tris-HCl/1 mM EDTA, pH8.0), and the solution was dropped on the DNA chip containing the whole genes of yeast (DNA Chip Research Inc. Japan) so that the cDNAs were hybridized on the DNA chip at 65° C. for over 12 hours. The fluoresces intensity of the DNA chip was read with a scanner, and the ratio relative to the fluorescence intensity resulting from the absence of chemical substance was estimated as the following, which is shown in Tables 1 to 9: [formula]
In the Tables, “Intensity” indicated in the rightmost column is a value of the level of expressed mRNA of each gene in control cells as divided by the average level of the expressions of the whole genes.

Substance: HgCl2 [(3)]
- The level of expressed mRNA in the presence of chemical substance/ (yeast gene YNL074C, ratio to control without chemical substance, 2 h culture): 1.8
- The level of expressed mRNA in the presence of chemical substance/ (yeast gene YNL092W, ratio to control without chemical substance, 2 h culture): 2.4
- The level of expressed mRNA in the presence of chemical substance/The level of expressed mRNA in the absence of chemical substance (yeast gene YNL093W): 0.4
- The level of expressed mRNA in the presence of chemical substance/ (yeast gene YNL115C, ratio to control without chemical substance, 2 h culture): 1.6
- The level of expressed mRNA in the presence of chemical substance/ (yeast gene YNL156C, ratio to control without chemical substance, 2 h culture): 0.9
- The level of expressed mRNA in the presence of chemical substance/ (yeast gene YNL234W, ratio to control without chemical substance, 2 h culture): 0.6
- The level of expressed mRNA in the presence of chemical substance/ (yeast gene YNL281W, ratio to control without chemical): 2.0
- The level of expressed mRNA in the presence of chemical substance/ (yeast gene YNL305C, ratio to control without chemical): 2.7
- The level of expressed mRNA in the presence of chemical substance/The level of expressed mRNA in the absence of chemical substance (yeast gene YNL333W): 1.7
- The level of expressed mRNA in the presence of chemical substance/The level of expressed mRNA in the absence of chemical substance (yeast gene YNR010W): 0.5
- The level of expressed mRNA in the presence of chemical substance/ (yeast gene YNR068C, ratio to control without chemical): 2.3
- The level of expressed mRNA in the presence of chemical substance/The level of expressed mRNA in the absence of chemical substance (yeast gene YNR069C): 0.7
- The level of expressed mRNA in the presence of chemical substance/in the absence of chemical substance (yeast gene YNR072W): 0.5
- The level of expressed mRNA in the presence of chemical substance/The level of expressed mRNA in the absence of chemical substance (yeast gene YOL013C): 1.0
- The level of expressed mRNA in the presence of chemical substance/ (yeast gene YOL032W, ratio to control without chemical): 2.0
- The level of expressed mRNA in the presence of chemical substance/ (yeast gene YOL036W, ratio to control without chemical): 1.3
- The level of expressed mRNA in the presence of chemical substance/ (yeast gene YOL047C, ratio to control without chemical): 1.1
- The level of expressed mRNA in the presence of chemical substance/ (yeast gene YOL071W, ratio to control without chemical): 1.7
- The level of expressed mRNA in the presence of chemical substance/ (yeast gene YOL082W, ratio to control without chemical): 1.6
- The level of expressed mRNA in the presence of chemical substance/ (yeast gene YOL083W, ratio to control without chemical): 1.2
- The level of expressed mRNA in the presence of chemical substance/in the absence of chemical substance (yeast gene YOL096C): 1.2
- The level of expressed mRNA in the presence of chemical substance/ (yeast gene YOL117W, ratio to control without chemical): 0.5
- The level of expressed mRNA in the presence of chemical substance/ (yeast gene YOL131W, ratio to control without chemical): 0.6
- The level of expressed mRNA in the presence of chemical substance/ (yeast gene YOL150C, ratio to control without chemical substance, 2 h culture): 9.9
- The level of expressed mRNA in the presence of chemical substance/ (yeast gene YOL162W, ratio to control without chemical): 1.7
- The level of expressed mRNA in the presence of chemical substance/The level of expressed mRNA in the absence of chemical substance (yeast gene YOL164W): 1.0
- The level of expressed mRNA in the presence of chemical substance/ (yeast gene YOR019W, ratio to control without chemical): 0.8
- The level of expressed mRNA in the presence of chemical substance/The level of expressed mRNA in the absence of chemical substance (yeast gene YOR036W): 1.4
- The level of expressed mRNA in the presence of chemical substance/The level of expressed mRNA in the absence of chemical substance (yeast gene YOR117W): 1.7
- The level of expressed mRNA in the presence of chemical substance/The level of expressed mRNA in the absence of chemical substance (yeast gene YOR124C): 1.3
- The level of expressed mRNA in the presence of chemical substance/The level of expressed mRNA in the absence of chemical substance (yeast gene YOR132W): 0.8
- The level of expressed mRNA in the presence of chemical substance/The level of expressed mRNA in the absence of chemical substance (yeast gene YOR157C): 1.2
- The level of expressed mRNA in the presence of chemical substance/in the absence of chemical substance (yeast gene YOR180C): 1.0
- The level of expressed mRNA in the presence of chemical substance/The level of expressed mRNA in the absence of chemical substance (yeast gene YOR181W): 1.1
- The level of expressed mRNA in the presence of chemical substance/The level of expressed mRNA in the absence of chemical substance (yeast gene YOR185C): 1.9
- The level of expressed mRNA in the presence of chemical substance/ (yeast gene YOR197W, ratio to control without chemical): 1.1
- The level of expressed mRNA in the presence of chemical substance/The level of expressed mRNA in the absence of chemical substance (yeast gene YOR198C): 1.4
- The level of expressed mRNA in the presence of chemical substance/The level of expressed mRNA in the absence of chemical substance (yeast gene YOR259C): 0.8
- The level of expressed mRNA in the presence of chemical substance/The level of expressed mRNA in the absence of chemical substance (yeast gene YOR261C): 0.6
- The level of expressed mRNA in the presence of chemical substance/The level of expressed mRNA in the absence of chemical substance (yeast gene YOR288C): 1.1
- The level of expressed mRNA in the presence of chemical substance/The level of expressed mRNA in the absence of chemical substance (yeast gene YOR355W): 1.1
- The level of expressed mRNA in the presence of chemical substance/in the absence of chemical substance (yeast gene YOR363C): 0.9
- The level of expressed mRNA in the presence of chemical substance/The level of expressed mRNA in the absence of chemical substance (yeast gene YOR383C): 2.6
- The level of expressed mRNA in the presence of chemical substance/ (yeast gene YPL087W, ratio to control without chemical): 3.0
- The level of expressed mRNA in the presence of chemical substance/The level of expressed mRNA in the absence of chemical substance (yeast gene YPL089C): 0.5
- The level of expressed mRNA in the presence of chemical substance/The level of expressed mRNA in the absence of chemical substance (yeast gene YPL109C): 0.5
- The level of expressed mRNA in the presence of chemical substance/The level of expressed mRNA in the absence of chemical substance (yeast gene YPL149W): 0.6
- The level of expressed mRNA in the presence of chemical substance/The level of expressed mRNA in the absence of chemical substance (yeast gene YPL154C): 4.2
- The level of expressed mRNA in the presence of chemical substance/ (yeast gene YPL196W, ratio to control without chemical): 1.3
- The level of expressed mRNA in the presence of chemical substance/ (yeast gene YPL206C, ratio to control without chemical): 1.4
- The level of expressed mRNA in the presence of chemical substance/ (yeast gene YPL222W, ratio to control without chemical): 0.8
- The level of expressed mRNA in the presence of chemical substance/ (yeast gene YPR023C, ratio to control without chemical): 1.2
- The level of expressed mRNA in the presence of chemical substance/The level of expressed mRNA in the absence of chemical substance (yeast gene YPR103W): 1.3
- The level of expressed mRNA in the presence of chemical substance/The level of expressed mRNA in the absence of chemical substance (yeast gene YPR108W): 1.3
- The level of expressed mRNA in the presence of chemical substance/ (yeast gene YPR151C, ratio to control without chemical): 1.5
- The level of expressed mRNA in the presence of chemical substance/in the absence of chemical substance (yeast gene YPR184W): 5.7
